Earlier results in patent US20080221211A1, “METHOD OF TREATMENT OF NEUROLOGICAL INJURY OR CANCER BY ADMINISTRATION OF DICHLOROACETATE” (priority 2007, published 2008).

Columns and labels:
[1] = in vivo
tumors = conditions: rat model
cancer cell lines = conditions: restored mitochondrial function and apoptosis
[2] = system: infarct size after stroke; conditions: rat; given within 2.25 hours of a stroke
[3] = system: cytochome oxidase activity in primary neurons
infarct size = conditions: rat pMCAo model; infusion

O=C(O)C(Cl)Cl [DCA, dichloroacetic acid]
reported adverse effect [1]: neuropathy
effect on tumors in rats (tumors): shrinking the tumors in rats
effect on cancer cells in vitro (cancer cell lines): killing cancer cells in vitro

CC(C)(C)[N+]([O-])=Cc1ccc(S(=O)(=O)[O-])cc1S(=O)(=O)[O-].[Na+].[Na+] [NXY-059]
effect on infarct size [2]: reduces infarct size

NC1=N[C@H](O)[C@H]2[C@H]3O[C@]4(O)O[C@@H]([C@@H](O)[C@@]2(N1)[C@@H]4O)[C@]3(O)CO [TTX, tetrodotoxin]
effect on cytochrome oxidase activity [3]: reduces cytochome oxidase activity

VEGF
effect on infarct size (infarct size): reduction of infarct size
